{"source": "patent US11491120B2", "about": "“Pharmacological prophylactics against stress-induced affective disorders in females” (The Trustees of Columbia University in the City of New York, priority 2017, dated 2022)", "key": {"[1]": {"tested_on": "female 129S6/SvEv mice", "assay": "Forced swim test after 10-day chronic immobilization stress (CIS)", "format": "in vivo, mouse", "conditions": "10 mg/kg, 1 week prophylactic drug", "procedure": "The CIS procedure induces a depressive-like phenotype in test subjects and has both predictive and face validity (54). Here, we used an adapted protocol from Ramirez et al. (55).\nAs previously tested in male mice (18), we validated our findings in a model of chronic stress. […] Drug dosages were chosen based on results from FIG. 1 and used for the remainder of the project unless otherwise specified. One week later, a 10-day CIS protocol was administered. Subsequently, mice were tested in the FST."}, "[2]": {"tested_on": "female 129S6/SvEv mice", "assay": "Contextual fear conditioning (CFC), 3-shock, freezing in training and context re-exposure", "conditions": "for p, Sal vs. drug, Dunnett test: Freezing (Average), Contextual Fear Conditioning Re-exposure / p, Freezing (min 1-5) / p, Freezing (min 2) / p, Freezing (min 3) / p, Freezing (min 4) / p, Freezing (min 5): 1 week prophylactic drug; for Freezing during 3-shock CFC training vs saline: 2.5, 10, or 30 mg/kg, 1 week before CFC"}, "[3]": {"conditions": "Contextual Fear Conditioning Re-exposure, Dunnett test Sal vs. drug (2.5)"}, "[4]": {"conditions": "Contextual Fear Conditioning Re-exposure, Dunnett test Sal vs. drug (10)"}, "[5]": {"conditions": "Contextual Fear Conditioning Re-exposure, Dunnett test Sal vs. drug (30)"}, "[6]": {"conditions": "Contextual Fear Conditioning Training, Dunnett test Sal vs. drug (2.5)"}}}
{"smiles": "CNC1(c2ccccc2Cl)CCCCC1=O", "note": "(racemic) [(R,S)-ketamine, (RS)-2-(2-chlorophenyl)-2-(methylamino)cyclohexanone]", "values": [{"measurement": "* (significance), Sal vs. drug, Fisher's PLSD: Immobility Time (min 2), Forced Swim Test Day 2", "setting": "[1]", "result": "* (* p<0.05)"}, {"measurement": "* (significance), Sal vs. drug, Fisher's PLSD: Immobility Time (min 5), Forced Swim Test Day 2", "setting": "[1]", "result": "** (** p<0.01)"}, {"measurement": "* (significance), Sal vs. drug, Fisher's PLSD: Immobility Time (min 6), Forced Swim Test Day 1", "setting": "[1]", "result": "** (** p<0.01)"}, {"measurement": "* (significance), Sal vs. drug, Fisher's PLSD: Immobility Time (min 6), Forced Swim Test Day 2", "setting": "[1]", "result": "** (** p<0.01)"}, {"measurement": "* (significance), Sal vs. drug, Fisher's PLSD: Immobility Time Average (min 3-6), Forced Swim Test Day 2", "setting": "[1]", "result": "** (** p<0.01)"}, {"measurement": "p, Sal vs. drug, Fisher's PLSD: Immobility Time (min 1), Forced Swim Test Day 1", "setting": "[1]", "result": 0.1619}, {"measurement": "p, Sal vs. drug, Fisher's PLSD: Immobility Time (min 1), Forced Swim Test Day 2", "setting": "[1]", "result": 0.0533}, {"measurement": "p, Sal vs. drug, Fisher's PLSD: Immobility Time (min 2), Forced Swim Test Day 1", "setting": "[1]", "result": 0.4051}, {"measurement": "p, Sal vs. drug, Fisher's PLSD: Immobility Time (min 2), Forced Swim Test Day 2", "setting": "[1]", "result": 0.0325}, {"measurement": "p, Sal vs. drug, Fisher's PLSD: Immobility Time (min 3), Forced Swim Test Day 1", "setting": "[1]", "result": 0.5575}, {"measurement": "p, Sal vs. drug, Fisher's PLSD: Immobility Time (min 4), Forced Swim Test Day 1", "setting": "[1]", "result": 0.4015}, {"measurement": "p, Sal vs. drug, Fisher's PLSD: Immobility Time (min 5), Forced Swim Test Day 1", "setting": "[1]", "result": 0.4985}, {"measurement": "p, Sal vs. drug, Fisher's PLSD: Immobility Time (min 5), Forced Swim Test Day 2", "setting": "[1]", "result": 0.0011}, {"measurement": "p, Sal vs. drug, Fisher's PLSD: Immobility Time (min 6), Forced Swim Test Day 1", "setting": "[1]", "result": 0.0022}, {"measurement": "p, Sal vs. drug, Fisher's PLSD: Immobility Time (min 6), Forced Swim Test Day 2", "setting": "[1]", "result": 0.0006}, {"measurement": "p, Sal vs. drug, Fisher's PLSD: Immobility Time Average (min 3-6), Forced Swim Test Day 2", "setting": "[1]", "result": 0.0005}, {"measurement": "p, Sal vs. drug, Fishers PLSD: Immobility Time Average (min 1-6), Forced Swim Test Day 1", "setting": "[1]", "result": 0.1873}, {"measurement": "p, Sal vs. drug, Dunnett test: Freezing (Average), Contextual Fear Conditioning Re-exposure", "setting": "[2]; 2.5 mg/kg", "result": 0.7546}, {"measurement": "p, Sal vs. drug, Dunnett test: Freezing (Average), Contextual Fear Conditioning Re-exposure", "setting": "[2]; 10 mg/kg", "result": 0.8986}, {"measurement": "p, Sal vs. drug, Dunnett test: Freezing (Average), Contextual Fear Conditioning Re-exposure", "setting": "[2]; 30 mg/kg", "result": 0.8647}, {"measurement": "Freezing during 3-shock CFC training vs saline", "setting": "[2]; female mice", "result": "did not alter freezing"}, {"measurement": "Freezing during 3-shock CFC training vs saline", "setting": "[2]; female mice, listed as (R, S)-ketamine", "result": "did not alter fear encoding"}, {"measurement": "Freezing during CFC training vs saline", "setting": "[2]; 2.5 and 10 mg/kg, 3 days before CFC, female mice", "result": "significantly increased freezing compared to saline"}, {"measurement": "Freezing during CFC training vs saline", "setting": "[2]; 2.5 and 10 mg/kg, 3 days before CFC, female mice; listed as R,S)-ketamine", "result": "significantly increased freezing during the last minute"}, {"measurement": "Freezing during context re-exposure vs saline", "setting": "[2]; 3 days before CFC, female mice", "result": "do not affect freezing during re-exposure"}, {"measurement": "p, Freezing (min 1-5)", "setting": "[2]; [3]", "result": 0.7546}, {"measurement": "p, Freezing (min 2)", "setting": "[2]; [3]", "result": 0.9996}, {"measurement": "p, Freezing (min 3)", "setting": "[2]; [3]", "result": 0.6267}, {"measurement": "p, Freezing (min 4)", "setting": "[2]; [3]", "result": 0.1951}, {"measurement": "p, Freezing (min 5)", "setting": "[2]; [3]", "result": 0.4912}, {"measurement": "p, Freezing (min 1-5)", "setting": "[2]; [4]", "result": 0.8986}, {"measurement": "p, Freezing (min 2)", "setting": "[2]; [4]", "result": 0.9240}, {"measurement": "p, Freezing (min 3)", "setting": "[2]; [4]", "result": 0.9864}, {"measurement": "p, Freezing (min 4)", "setting": "[2]; [4]", "result": 0.6904}, {"measurement": "p, Freezing (min 5)", "setting": "[2]; [4]", "result": 0.6667}, {"measurement": "p, Freezing (min 1-5)", "setting": "[2]; [5]", "result": 0.8647}, {"measurement": "p, Freezing (min 2)", "setting": "[2]; [5]", "result": 0.6079}, {"measurement": "p, Freezing (min 3)", "setting": "[2]; [5]", "result": 0.8139}, {"measurement": "p, Freezing (min 4)", "setting": "[2]; [5]", "result": 0.9885}, {"measurement": "p, Freezing (min 5)", "setting": "[2]; [5]", "result": 0.9996}, {"measurement": "p, Freezing (min 1-5)", "setting": "[2]; [6]", "result": 0.5398}, {"measurement": "p, Freezing (min 4)", "setting": "[2]; [6]", "result": 0.9957}]}
